These results are taken from ChEMBL document CHEMBL5465560, “Selectivity Literature for EUbOPEN Chemogenomic Library” (2024).

Test [1] deals with Ephrin type-A receptor 7 (Homo sapiens) (UniProt Q15375). Description: Selectivity interaction (LanthaScreen Eu Kinase Binding Assay) EUB0001632a EPHA7. The settings on record: at 10 µM. (In general: Time-resolved FRET reads energy transfer from a long-lived donor to a nearby acceptor.)
The target in test [2] is Tyrosine-protein kinase CSK (Homo sapiens) (UniProt P41240). Description: Selectivity interaction (SelectScreen profiling (Invitrogen)) EUB0000607a CSK. The settings on record: at 2 µM.
Sequence of Tyrosine-protein kinase CSK (Homo sapiens) (P41240 2-450 limits assumed): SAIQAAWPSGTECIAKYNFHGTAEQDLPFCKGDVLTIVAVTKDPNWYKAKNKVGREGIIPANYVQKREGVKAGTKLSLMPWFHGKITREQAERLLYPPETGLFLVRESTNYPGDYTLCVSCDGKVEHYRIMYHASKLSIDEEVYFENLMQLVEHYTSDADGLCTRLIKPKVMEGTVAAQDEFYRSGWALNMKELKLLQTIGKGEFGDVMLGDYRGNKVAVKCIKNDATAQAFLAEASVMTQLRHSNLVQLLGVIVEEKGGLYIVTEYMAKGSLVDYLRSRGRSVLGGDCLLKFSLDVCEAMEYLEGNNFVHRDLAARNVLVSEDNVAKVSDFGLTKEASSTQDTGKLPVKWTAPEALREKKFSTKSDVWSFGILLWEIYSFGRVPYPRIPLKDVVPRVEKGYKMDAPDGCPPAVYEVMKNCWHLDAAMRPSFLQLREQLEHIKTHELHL
Test [3] deals with Phosphatidylinositol 4,5-bisphosphate 3-kinase catalytic subunit alpha isoform (Homo sapiens), P42336 [H1047L]. The settings on record: at 10 µM.
The subject of test [4] is Epidermal growth factor receptor (Homo sapiens), P00533 [UNDEFINED MUTATION]. The experiment in a line: Selectivity interaction (KinomeScan (DiscoverX)) EUB0000666a EGFR. The settings on record: at 10 µM.
The target in test [5] is DNA (cytosine-5)-methyltransferase 3B (Homo sapiens) (UniProt Q9UBC3). The settings on record: at 10 µM.
Test [6] deals with Bone morphogenetic protein receptor type-1A (Homo sapiens, UniProt P36894). Description: Selectivity interaction (KinomeScan (DiscoverX)) EUB0000229b BMPR1A. The settings on record: at 10 µM.
Sequence of Bone morphogenetic protein receptor type-1A (P36894 whole entry): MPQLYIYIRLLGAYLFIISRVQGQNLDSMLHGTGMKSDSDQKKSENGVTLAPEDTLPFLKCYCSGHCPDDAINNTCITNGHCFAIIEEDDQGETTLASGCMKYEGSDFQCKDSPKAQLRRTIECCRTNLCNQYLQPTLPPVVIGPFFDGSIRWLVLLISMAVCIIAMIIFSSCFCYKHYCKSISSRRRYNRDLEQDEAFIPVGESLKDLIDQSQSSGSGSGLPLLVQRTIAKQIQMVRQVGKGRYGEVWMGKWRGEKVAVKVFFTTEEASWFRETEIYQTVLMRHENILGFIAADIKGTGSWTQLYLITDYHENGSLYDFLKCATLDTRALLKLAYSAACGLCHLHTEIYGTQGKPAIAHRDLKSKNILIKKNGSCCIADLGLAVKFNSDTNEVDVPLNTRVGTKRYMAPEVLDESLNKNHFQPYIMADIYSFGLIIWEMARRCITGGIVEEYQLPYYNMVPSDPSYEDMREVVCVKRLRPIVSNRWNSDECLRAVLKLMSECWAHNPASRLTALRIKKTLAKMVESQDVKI
In test [7] the test system is Receptor-type tyrosine-protein kinase FLT3 (Homo sapiens), P36888 [UNDEFINED MUTATION]. The experiment in a line: Selectivity interaction (KinomeScan (DiscoverX)) EUB0000229b FLT3. The settings on record: at 1 µM.
Test [8] addresses Cyclin-dependent kinase 7 (Homo sapiens, UniProt P50613). Description: Selectivity interaction (KinomeScan (DiscoverX)) EUB0000655a CDK7. The settings on record: at 10 µM.
The target in test [9] is Serine/threonine-protein kinase 24 (Homo sapiens) (UniProt Q9Y6E0). The experiment in a line: Selectivity interaction (KinomeScan (DiscoverX)) EUB0000655a STK24. The settings on record: at 10 µM.
Test [10] deals with Angiopoietin-1 receptor (Homo sapiens) (UniProt Q02763). Description: Selectivity interaction (KinomeScan (DiscoverX)) EUB0000655a TEK. The settings on record: at 10 µM.
Sequence of Angiopoietin-1 receptor (Homo sapiens) (Q02763 whole entry): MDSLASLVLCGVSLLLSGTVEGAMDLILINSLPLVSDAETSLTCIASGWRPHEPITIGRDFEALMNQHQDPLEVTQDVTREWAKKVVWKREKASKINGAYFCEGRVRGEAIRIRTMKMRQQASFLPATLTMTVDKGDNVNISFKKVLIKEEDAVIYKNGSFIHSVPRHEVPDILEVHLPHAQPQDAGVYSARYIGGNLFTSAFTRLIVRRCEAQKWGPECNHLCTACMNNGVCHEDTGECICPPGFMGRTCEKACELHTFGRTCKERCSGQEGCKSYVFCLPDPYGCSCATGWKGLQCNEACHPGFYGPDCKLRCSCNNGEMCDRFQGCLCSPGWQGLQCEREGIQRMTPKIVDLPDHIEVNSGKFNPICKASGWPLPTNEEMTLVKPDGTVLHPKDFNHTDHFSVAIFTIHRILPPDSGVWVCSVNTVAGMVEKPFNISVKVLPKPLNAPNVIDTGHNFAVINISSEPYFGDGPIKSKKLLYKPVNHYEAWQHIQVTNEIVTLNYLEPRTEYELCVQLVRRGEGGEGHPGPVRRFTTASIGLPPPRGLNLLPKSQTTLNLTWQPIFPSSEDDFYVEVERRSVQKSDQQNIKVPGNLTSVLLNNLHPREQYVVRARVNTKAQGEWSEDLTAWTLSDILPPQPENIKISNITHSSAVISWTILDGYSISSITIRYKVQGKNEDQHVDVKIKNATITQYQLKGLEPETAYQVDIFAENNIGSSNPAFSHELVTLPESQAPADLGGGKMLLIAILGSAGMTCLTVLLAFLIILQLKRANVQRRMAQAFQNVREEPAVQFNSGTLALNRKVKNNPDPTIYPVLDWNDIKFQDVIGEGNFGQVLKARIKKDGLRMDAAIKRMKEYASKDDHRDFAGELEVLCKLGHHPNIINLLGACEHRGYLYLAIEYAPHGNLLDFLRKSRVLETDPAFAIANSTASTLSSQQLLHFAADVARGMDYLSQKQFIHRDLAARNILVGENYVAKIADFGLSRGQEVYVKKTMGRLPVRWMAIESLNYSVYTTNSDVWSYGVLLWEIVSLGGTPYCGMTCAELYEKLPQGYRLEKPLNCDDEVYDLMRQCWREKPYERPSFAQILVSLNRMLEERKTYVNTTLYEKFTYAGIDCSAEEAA
Test [11] addresses Serine/threonine-protein kinase PLK2 (Homo sapiens, UniProt Q9NYY3). The experiment in a line: Selectivity interaction (KinomeScan (DiscoverX)) EUB0001079a PLK2. The settings on record: at 1 µM.
For test [12], the target named is Tyrosine-protein kinase receptor Tie-1 (Homo sapiens) (UniProt P35590). The experiment in a line: Selectivity interaction (KinomeScan (DiscoverX)) EUB0001079a TIE1. The settings on record: at 1 µM.
Sequence of Tyrosine-protein kinase receptor Tie-1 (Homo sapiens) (P35590 whole entry): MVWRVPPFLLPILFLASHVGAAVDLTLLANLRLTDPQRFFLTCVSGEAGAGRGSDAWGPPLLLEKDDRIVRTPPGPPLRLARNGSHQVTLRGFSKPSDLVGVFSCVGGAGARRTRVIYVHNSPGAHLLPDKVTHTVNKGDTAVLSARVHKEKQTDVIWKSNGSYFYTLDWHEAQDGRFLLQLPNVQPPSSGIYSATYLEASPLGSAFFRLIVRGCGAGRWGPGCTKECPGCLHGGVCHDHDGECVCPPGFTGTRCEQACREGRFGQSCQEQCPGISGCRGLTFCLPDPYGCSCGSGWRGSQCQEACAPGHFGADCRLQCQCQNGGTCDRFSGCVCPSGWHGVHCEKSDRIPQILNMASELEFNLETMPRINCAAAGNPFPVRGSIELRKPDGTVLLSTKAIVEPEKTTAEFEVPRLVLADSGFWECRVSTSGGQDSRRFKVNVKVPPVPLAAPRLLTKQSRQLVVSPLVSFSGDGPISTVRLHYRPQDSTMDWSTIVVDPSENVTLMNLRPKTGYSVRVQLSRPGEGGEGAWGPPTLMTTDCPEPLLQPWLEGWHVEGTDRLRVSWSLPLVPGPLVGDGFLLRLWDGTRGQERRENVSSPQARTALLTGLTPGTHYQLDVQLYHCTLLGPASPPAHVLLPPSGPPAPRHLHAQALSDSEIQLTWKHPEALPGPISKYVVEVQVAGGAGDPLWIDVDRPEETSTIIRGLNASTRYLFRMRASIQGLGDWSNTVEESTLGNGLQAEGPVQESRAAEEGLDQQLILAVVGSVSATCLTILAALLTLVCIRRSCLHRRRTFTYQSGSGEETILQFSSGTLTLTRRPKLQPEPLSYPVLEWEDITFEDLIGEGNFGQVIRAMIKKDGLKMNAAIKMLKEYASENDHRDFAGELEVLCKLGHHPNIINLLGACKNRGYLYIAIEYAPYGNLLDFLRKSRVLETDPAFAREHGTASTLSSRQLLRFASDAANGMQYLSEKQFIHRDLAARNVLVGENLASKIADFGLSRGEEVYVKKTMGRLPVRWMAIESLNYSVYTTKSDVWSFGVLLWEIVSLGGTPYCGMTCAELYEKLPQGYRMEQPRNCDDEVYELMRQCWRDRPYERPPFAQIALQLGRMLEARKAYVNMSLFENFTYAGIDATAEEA
Test [13] has as its target T1, Interleukin-1 receptor-associated kinase 3 (Homo sapiens) (UniProt Q9Y616).
T1 sequence (whole entry): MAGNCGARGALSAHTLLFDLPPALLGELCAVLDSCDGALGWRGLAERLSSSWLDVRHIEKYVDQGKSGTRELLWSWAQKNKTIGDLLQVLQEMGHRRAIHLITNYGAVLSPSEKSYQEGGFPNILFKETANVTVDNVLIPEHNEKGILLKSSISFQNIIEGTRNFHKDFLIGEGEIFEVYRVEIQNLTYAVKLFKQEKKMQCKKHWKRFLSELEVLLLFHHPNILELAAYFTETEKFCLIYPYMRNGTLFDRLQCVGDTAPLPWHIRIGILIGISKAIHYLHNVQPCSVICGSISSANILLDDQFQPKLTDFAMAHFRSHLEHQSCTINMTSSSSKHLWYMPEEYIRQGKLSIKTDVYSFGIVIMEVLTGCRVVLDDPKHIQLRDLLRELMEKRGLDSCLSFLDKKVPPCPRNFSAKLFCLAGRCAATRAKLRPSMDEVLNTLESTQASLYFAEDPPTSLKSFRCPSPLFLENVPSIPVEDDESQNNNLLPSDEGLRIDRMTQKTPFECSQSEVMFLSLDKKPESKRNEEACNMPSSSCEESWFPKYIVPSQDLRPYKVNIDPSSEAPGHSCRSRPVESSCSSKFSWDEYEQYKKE
Description: Selectivity interaction (KinomeScan (DiscoverX)) EUB0001619a IRAK3. The settings on record: at 1 µM.

Test [14] deals with Tyrosine-protein kinase HCK (Homo sapiens) (UniProt P08631). The experiment in a line: Selectivity interaction (ActivX KiNativ screen (kinase selectivity in THP-1 cell lysates)) EUB0000639a HCK. The settings on record: lysate, at 5 µM. The format is subcellular.
In test [15] the target is T2, Serine/threonine-protein kinase TBK1 (Homo sapiens) (UniProt Q9UHD2).
T2 sequence (whole entry): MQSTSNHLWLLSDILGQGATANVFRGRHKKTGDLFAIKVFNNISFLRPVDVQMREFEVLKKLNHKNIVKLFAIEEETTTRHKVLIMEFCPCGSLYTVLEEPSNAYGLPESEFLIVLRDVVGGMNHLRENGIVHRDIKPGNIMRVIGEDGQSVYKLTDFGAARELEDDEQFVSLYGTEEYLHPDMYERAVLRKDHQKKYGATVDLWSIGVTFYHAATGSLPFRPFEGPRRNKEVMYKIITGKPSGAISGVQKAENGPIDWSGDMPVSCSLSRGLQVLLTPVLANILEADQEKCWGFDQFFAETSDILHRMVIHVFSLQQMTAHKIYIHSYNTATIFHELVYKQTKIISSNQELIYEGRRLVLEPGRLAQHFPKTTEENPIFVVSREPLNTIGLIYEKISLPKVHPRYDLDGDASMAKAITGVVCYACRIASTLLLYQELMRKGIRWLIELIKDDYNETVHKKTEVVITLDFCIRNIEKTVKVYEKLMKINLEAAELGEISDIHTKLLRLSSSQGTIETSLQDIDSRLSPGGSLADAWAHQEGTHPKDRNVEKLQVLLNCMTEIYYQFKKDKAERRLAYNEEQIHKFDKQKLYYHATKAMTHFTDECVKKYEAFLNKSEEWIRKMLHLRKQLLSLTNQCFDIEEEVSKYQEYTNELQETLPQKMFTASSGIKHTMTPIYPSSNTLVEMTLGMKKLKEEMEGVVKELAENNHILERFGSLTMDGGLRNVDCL
Description: Selectivity interaction (ActivX KiNativ screen (kinase selectivity in THP-1 cell lysates)) EUB0000639a TBK1. The format is subcellular. The settings on record: lysate, at 1 µM.

In test [16] the target is Serine/threonine-protein kinase OSR1 (Homo sapiens) (UniProt O95747). The experiment in a line: Selectivity interaction (KinomeScan (DiscoverX)) EUB0001049a OXSR1. The settings on record: at 1 µM.
Sequence of Serine/threonine-protein kinase OSR1 (Homo sapiens) (O95747 2-527 limits assumed): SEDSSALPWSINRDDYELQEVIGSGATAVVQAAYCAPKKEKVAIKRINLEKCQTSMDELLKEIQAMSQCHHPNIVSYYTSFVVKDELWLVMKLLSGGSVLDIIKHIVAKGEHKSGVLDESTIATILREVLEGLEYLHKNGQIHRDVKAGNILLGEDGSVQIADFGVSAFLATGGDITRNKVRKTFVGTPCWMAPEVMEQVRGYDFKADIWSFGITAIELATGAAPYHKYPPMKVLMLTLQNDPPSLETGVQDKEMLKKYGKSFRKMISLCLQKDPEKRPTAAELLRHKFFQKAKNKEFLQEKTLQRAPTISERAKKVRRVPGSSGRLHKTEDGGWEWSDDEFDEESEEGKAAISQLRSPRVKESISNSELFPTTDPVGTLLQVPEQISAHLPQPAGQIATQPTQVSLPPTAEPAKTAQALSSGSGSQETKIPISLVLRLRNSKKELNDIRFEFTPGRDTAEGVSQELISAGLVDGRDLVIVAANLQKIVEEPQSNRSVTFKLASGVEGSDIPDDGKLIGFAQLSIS
Test [17] has as its target Histone-lysine N-methyltransferase 2A (Homo sapiens) (UniProt Q03164). Description: Selectivity interaction (Human bromodomain panel (DSF assay)) EUB0000233b MLL. For orientation: Differential scanning fluorimetry follows unfolding on heating by fluorescence.
The target in test [18] is Neuromedin-K receptor (Homo sapiens) (UniProt P29371). Description: Selectivity interaction (Eurofins CEREP Diversity Profile (receptors and ion channels)) EUB0000279b TACR3. The settings on record: at 10 µM.
In another test the target is Insulin receptor (Homo sapiens, UniProt P06213). The experiment in a line: Selectivity interaction (Upstate Kinase Profiler service (Millipore)) EUB0000056c INSR. The settings on record: at 1 µM.

Sequence of Ephrin type-A receptor 7 (Homo sapiens) (Q15375 28-998 limits assumed): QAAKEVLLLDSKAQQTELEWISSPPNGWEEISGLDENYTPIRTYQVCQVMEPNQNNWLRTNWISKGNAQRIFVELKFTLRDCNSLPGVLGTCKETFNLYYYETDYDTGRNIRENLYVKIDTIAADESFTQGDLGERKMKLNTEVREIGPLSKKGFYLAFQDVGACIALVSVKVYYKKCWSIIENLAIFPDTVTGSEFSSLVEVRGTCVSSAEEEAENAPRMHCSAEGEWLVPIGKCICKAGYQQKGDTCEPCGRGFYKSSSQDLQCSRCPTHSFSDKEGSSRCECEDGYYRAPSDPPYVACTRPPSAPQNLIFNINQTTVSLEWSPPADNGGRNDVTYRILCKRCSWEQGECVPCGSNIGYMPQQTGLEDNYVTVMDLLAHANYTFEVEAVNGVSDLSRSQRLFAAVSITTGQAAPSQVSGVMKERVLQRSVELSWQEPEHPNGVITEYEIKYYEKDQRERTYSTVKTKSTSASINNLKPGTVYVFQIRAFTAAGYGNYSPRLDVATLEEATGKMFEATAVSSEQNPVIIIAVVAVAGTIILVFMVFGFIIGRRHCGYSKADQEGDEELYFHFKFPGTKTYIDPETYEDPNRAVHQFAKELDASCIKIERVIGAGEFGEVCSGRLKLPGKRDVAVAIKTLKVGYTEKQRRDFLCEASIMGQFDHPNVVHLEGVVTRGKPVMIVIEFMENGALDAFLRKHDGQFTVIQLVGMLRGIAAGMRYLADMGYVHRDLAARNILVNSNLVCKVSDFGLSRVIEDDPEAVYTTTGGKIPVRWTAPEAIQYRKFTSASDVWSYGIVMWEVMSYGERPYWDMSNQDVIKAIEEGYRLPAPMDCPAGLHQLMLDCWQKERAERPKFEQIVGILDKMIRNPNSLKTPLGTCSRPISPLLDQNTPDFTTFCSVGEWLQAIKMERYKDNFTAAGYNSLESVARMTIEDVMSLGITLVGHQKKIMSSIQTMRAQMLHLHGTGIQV

Turning to `Cn1cc(-n2cnc3c(NCc4nc5cc(Cl)c(Cl)cc5[nH]4)nc(N4CCOCC4)nc32)cn1`, the % of inhibition in [1] is -69.8%.

On to `CNC(=O)Nc1ccc(-c2nc(N3CC4CCC(C3)O4)c3cnn(C4CCC5(CC4)OCCO5)c3n2)cc1`, for which, in [2], the % of inhibition was -1%. The % of control in test [3] is 15%.

Regarding `O=C(NOC[C@H](O)CO)c1ccc(F)c(F)c1Nc1ccc(I)cc1F`, the % of control in [4] was 70%.

Take `CNCCN1CCC(c2cc(CN(C)C(=O)c3cccc(Oc4ccccc4)c3)ccn2)CC1`: the % activity in [5] is above 90%.

Consider `COc1cc(N(C)c2ccnc3ccc(C(F)(F)F)cc23)cc(OC)c1OC`, for which the values for the % binding in [6] and in [7] were 76% and 93%, respectively.

Regarding `CN(C)CCOc1ccc(-c2nc(-c3ccncc3)c(-c3ccc4c(c3)CC/C4=N\O)[nH]2)cc1`, the % of control in test [8] was 93%; in test [9], 100%; in test [10], 63%.

On to `Nc1cnc(N2CCc3cc(S(=O)(=O)Nc4c(F)cc(Cl)cc4F)cc(N4CCCC4=O)c32)nc1` [TP-020n], for which the % of control in test [11] and in [12] was 100% throughout.

As for `N#Cc1cccc(-c2c[nH]c3ncnc(N4CCOCC4)c23)c1`, in test [13], the % of control was determined as 74%.

Turning to `CC[C@@H]1[C@H](F)C(=O)N[C@@H]1COc1nccc2cc(C(N)=O)c(OC)cc12` [ZIMLOVISERTIB], the % of inhibition in [14] was -20.3%; in [15], 7.6%.

Regarding `COc1cc(Nc2nc(C)cc(-c3cnn4nc(OC)ccc34)n2)cc(C(F)(F)F)c1`, the % of control in [16] stood at 83%.

`CN(C)CCCOc1ccc(-c2cc(NCCCn3cccn3)nc(S(C)(=O)=O)n2)cc1` showed a dTM in test [17] below 2 K.

Compound `CC(=O)c1cc(-c2ccccc2OCC2CC2)c2ncccn12` yielded a % of control in test [18] of 85%.

As for `Cc1ccc(-c2ccc3c(ccc4sc5c(c43)NC[C@@H](C)NC5=O)n2)cn1`, the % of inhibition at Insulin receptor was determined as 5%.
